Measured values published in PubChem BioAssay (NCI).
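All cell lines were grown in 96-well plates and treated with compound for 48 hours. TGI marks complete inhibition of growth.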

Legend:
Assay in all cases: inhibition of tumour cell growth, NCI panel, 48 h
T-47D breast = system: T-47D breast
COLO 205 colon = system: COLO 205 colon
EKVX NSCLC = system: EKVX NSCLC
SW-620 colon = system: SW-620 colon
U251 CNS = system: U251 CNS
HT29 colon = system: HT29 colon
UACC-62 melanoma = system: UACC-62 melanoma
SN12C renal = system: SN12C renal
CCRF-CEM leukemia = system: CCRF-CEM leukemia
MDA-MB-231 breast = system: MDA-MB-231 breast
UO-31 renal = system: UO-31 renal
HCT-15 colon = system: HCT-15 colon
MOLT-4 leukemia = system: MOLT-4 leukemia
NCI/ADR-RES ovarian = system: NCI/ADR-RES ovarian
MALME-3M melanoma = system: MALME-3M melanoma
DU-145 prostate = system: DU-145 prostate
TK-10 renal = system: TK-10 renal
SK-MEL-28 melanoma = system: SK-MEL-28 melanoma
NCI-H460 lung = system: NCI-H460 lung
ACHN renal = system: ACHN renal
HOP-62 NSCLC = system: HOP-62 NSCLC
CAKI-1 renal = system: CAKI-1 renal
NCI-H23 lung = system: NCI-H23 lung
HCT-116 colon = system: HCT-116 colon
SK-OV-3 ovarian = system: SK-OV-3 ovarian
K-562 leukemia = system: K-562 leukemia
HS 578T breast = system: HS 578T breast
HOP-92 NSCLC = system: HOP-92 NSCLC
MCF7 breast = system: MCF7 breast
NCI-H226 lung = system: NCI-H226 lung
A549 NSCLC = system: A549 NSCLC
UACC-257 melanoma = system: UACC-257 melanoma
SF-295 CNS = system: SF-295 CNS
MDA-N = system: MDA-N
OVCAR-5 ovarian = system: OVCAR-5 ovarian
LOX IMVI melanoma = system: LOX IMVI melanoma
SNB-19 CNS = system: SNB-19 CNS
NCI-H522 lung = system: NCI-H522 lung
SF-539 CNS = system: SF-539 CNS
M14 melanoma = system: M14 melanoma
HL-60(TB) leukemia = system: HL-60(TB) leukemia
A498 renal = system: A498 renal
OVCAR-8 ovarian = system: OVCAR-8 ovarian
SK-MEL-5 melanoma = system: SK-MEL-5 melanoma
SK-MEL-2 melanoma = system: SK-MEL-2 melanoma
PC-3 prostate = system: PC-3 prostate
RPMI-8226 leukemia = system: RPMI-8226 leukemia
OVCAR-4 ovarian = system: OVCAR-4 ovarian
RXF 393 renal = system: RXF 393 renal
MDA-MB-435 = system: MDA-MB-435
BT-549 breast = system: BT-549 breast
KM12 colon = system: KM12 colon
SF-268 CNS = system: SF-268 CNS
OVCAR-3 ovarian = system: OVCAR-3 ovarian
SR leukemia = system: SR leukemia
IGROV1 ovarian = system: IGROV1 ovarian
786-0 renal = system: 786-0 renal
SNB-75 CNS = system: SNB-75 CNS
HCC-2998 colon = system: HCC-2998 colon

For `O=C(O)C1Cc2c([nH]c3ccccc23)C(CCCCO)N1` (stereo not drawn), the TGI (T-47D breast) was > 100 µM, the TGI (COLO 205 colon) was > 100 µM and the TGI (EKVX NSCLC) was > 100 µM. For the same compound, the TGI (SW-620 colon) was > 100 µM, the TGI (U251 CNS) was > 100 µM and the TGI (HT29 colon) was > 100 µM. For the same compound, the TGI (UACC-62 melanoma) was > 100 µM, the TGI (SN12C renal) was > 100 µM and the TGI (CCRF-CEM leukemia) was > 100 µM. For the same compound, the TGI (MDA-MB-231 breast) was > 100 µM, the TGI (UO-31 renal) was > 100 µM and the TGI (HCT-15 colon) was > 100 µM. The TGI (MOLT-4 leukemia) was > 100 µM, the TGI (NCI/ADR-RES ovarian) was > 100 µM and the TGI (MALME-3M melanoma) was > 100 µM. The TGI (DU-145 prostate) was > 100 µM, the TGI (TK-10 renal) was > 100 µM and the TGI (SK-MEL-28 melanoma) was > 100 µM. The TGI (NCI-H460 lung) was > 100 µM, the TGI (ACHN renal) was > 100 µM and the TGI (HOP-62 NSCLC) was > 100 µM. The TGI (CAKI-1 renal) was > 100 µM, the TGI (NCI-H23 lung) was > 100 µM and the TGI (HCT-116 colon) was > 100 µM. The TGI (SK-OV-3 ovarian) was > 100 µM, the TGI (K-562 leukemia) was > 100 µM and the TGI (HS 578T breast) was > 100 µM. The TGI (HOP-92 NSCLC) was > 100 µM, the TGI (MCF7 breast) was > 100 µM and the TGI (NCI-H226 lung) was > 100 µM. For the same compound, the TGI (A549 NSCLC) was > 100 µM, the TGI (UACC-257 melanoma) was > 100 µM and the TGI (SF-295 CNS) was > 100 µM. The TGI (MDA-N) was > 100 µM, the TGI (OVCAR-5 ovarian) was > 100 µM and the TGI (LOX IMVI melanoma) was > 100 µM. The TGI (SNB-19 CNS) was > 100 µM, the TGI (NCI-H522 lung) was > 100 µM and the TGI (SF-539 CNS) was > 100 µM. The TGI (M14 melanoma) was > 100 µM, the TGI (HL-60(TB) leukemia) was > 100 µM and the TGI (A498 renal) was > 100 µM. The TGI (OVCAR-8 ovarian) was > 100 µM, the TGI (SK-MEL-5 melanoma) was > 100 µM and the TGI (SK-MEL-2 melanoma) was > 100 µM. For the same compound, the TGI (PC-3 prostate) was > 100 µM, the TGI (RPMI-8226 leukemia) was > 100 µM and the TGI (OVCAR-4 ovarian) was > 100 µM. For the same compound, the TGI (RXF 393 renal) was > 100 µM, the TGI (MDA-MB-435) was > 100 µM and the TGI (BT-549 breast) was > 100 µM. The TGI (KM12 colon) was > 100 µM, the TGI (SF-268 CNS) was > 100 µM and the TGI (OVCAR-3 ovarian) was > 100 µM. For the same compound, the TGI (SR leukemia) was > 100 µM, the TGI (IGROV1 ovarian) was > 100 µM and the TGI (786-0 renal) was > 100 µM.
Work on `CC(=O)Oc1ccc2c3c1[C@H]1O[C@H]1c1cccc(c1-3)[C@@H]1O[C@H]21` yielded a TGI (T-47D breast) of 6.79 µM, a TGI (COLO 205 colon) of 27.4 µM and a TGI (EKVX NSCLC) of 36.9 µM. It also gave a TGI (SW-620 colon) of 4.59 µM, a TGI (U251 CNS) of 18.9 µM and a TGI (HT29 colon) of 47.4 µM. It also gave a TGI (UACC-62 melanoma) of 20.8 µM, a TGI (SN12C renal) of 7.55 µM and a TGI (MDA-MB-231 breast) of 31.5 µM. The TGI (UO-31 renal) was 8.94 µM, the TGI (HCT-15 colon) was 13.1 µM and the TGI (MOLT-4 leukemia) was > 100 µM. It also gave a TGI (NCI/ADR-RES ovarian) of 43.5 µM, a TGI (MALME-3M melanoma) of 5.76 µM and a TGI (DU-145 prostate) of 20.8 µM. It also gave a TGI (TK-10 renal) of 31.8 µM, a TGI (SK-MEL-28 melanoma) of 27.7 µM and a TGI (ACHN renal) of 37.4 µM. It also gave a TGI (HOP-62 NSCLC) of 17.5 µM, a TGI (CAKI-1 renal) of 7.96 µM and a TGI (NCI-H23 lung) of 12.7 µM. The TGI (HCT-116 colon) was 34.4 µM, the TGI (SK-OV-3 ovarian) was 27.9 µM and the TGI (K-562 leukemia) was > 100 µM. The TGI (HS 578T breast) was 14.4 µM, the TGI (HOP-92 NSCLC) was 24.9 µM and the TGI (MCF7 breast) was > 100 µM. The TGI (NCI-H226 lung) was 56.8 µM, the TGI (A549 NSCLC) was 22.1 µM and the TGI (UACC-257 melanoma) was 32.9 µM. It also gave a TGI (SF-295 CNS) of 25 µM, a TGI (MDA-N) of 20.9 µM and a TGI (OVCAR-5 ovarian) of 31.8 µM. For the same compound, the TGI (LOX IMVI melanoma) was 4.13 µM, the TGI (SNB-19 CNS) was 30.5 µM and the TGI (SNB-75 CNS) was 15.7 µM. It also gave a TGI (NCI-H522 lung) of 4.51 µM, a TGI (M14 melanoma) of 10.2 µM and a TGI (HL-60(TB) leukemia) of 6.61 µM. It also gave a TGI (A498 renal) of 33.8 µM, a TGI (OVCAR-8 ovarian) of 9.88 µM and a TGI (SK-MEL-5 melanoma) of 12.1 µM. The TGI (SK-MEL-2 melanoma) was 39.6 µM, the TGI (PC-3 prostate) was 32.9 µM and the TGI (RPMI-8226 leukemia) was > 100 µM. It also gave a TGI (OVCAR-4 ovarian) of 18.6 µM, a TGI (RXF 393 renal) of 6.84 µM and a TGI (MDA-MB-435) of 4.26 µM. The TGI (BT-549 breast) was 23.6 µM, the TGI (KM12 colon) was 27.5 µM and the TGI (SF-268 CNS) was 14.4 µM. The TGI (OVCAR-3 ovarian) was 11.8 µM, the TGI (SR leukemia) was > 100 µM and the TGI (786-0 renal) was 6.01 µM. It also gave a TGI (HCC-2998 colon) of 25.3 µM.
With `COc1ccc2c(c1)CCc1cc(C(N)=O)c3nnnn3c1-2` the TGI (T-47D breast) was > 100 µM, the TGI (COLO 205 colon) was > 100 µM and the TGI (SW-620 colon) was > 100 µM. For the same compound, the TGI (U251 CNS) was > 67.4 µM, the TGI (HT29 colon) was > 100 µM and the TGI (UACC-62 melanoma) was 23.9 µM. The TGI (SN12C renal) was > 100 µM, the TGI (CCRF-CEM leukemia) was > 91.2 µM and the TGI (MDA-MB-231 breast) was > 100 µM. The TGI (HCT-15 colon) was > 100 µM, the TGI (MOLT-4 leukemia) was > 76.9 µM and the TGI (NCI/ADR-RES ovarian) was > 100 µM. The TGI (MALME-3M melanoma) was > 100 µM, the TGI (DU-145 prostate) was > 100 µM and the TGI (TK-10 renal) was > 100 µM. The TGI (SK-MEL-28 melanoma) was > 100 µM, the TGI (NCI-H460 lung) was 50.9 µM and the TGI (ACHN renal) was > 100 µM. The TGI (HOP-62 NSCLC) was > 100 µM, the TGI (CAKI-1 renal) was > 100 µM and the TGI (NCI-H23 lung) was > 100 µM. The TGI (HCT-116 colon) was > 100 µM, the TGI (SK-OV-3 ovarian) was > 100 µM and the TGI (K-562 leukemia) was > 100 µM. The TGI (HS 578T breast) was > 100 µM, the TGI (HOP-92 NSCLC) was > 100 µM and the TGI (MCF7 breast) was > 100 µM. The TGI (NCI-H226 lung) was > 100 µM, the TGI (A549 NSCLC) was > 100 µM and the TGI (UACC-257 melanoma) was > 100 µM. The TGI (SF-295 CNS) was 98.5 µM, the TGI (MDA-N) was > 100 µM and the TGI (OVCAR-5 ovarian) was > 100 µM. The TGI (LOX IMVI melanoma) was > 100 µM, the TGI (SNB-19 CNS) was > 100 µM and the TGI (NCI-H522 lung) was > 100 µM. The TGI (SF-539 CNS) was > 100 µM, the TGI (M14 melanoma) was > 100 µM and the TGI (HL-60(TB) leukemia) was > 100 µM. For the same compound, the TGI (A498 renal) was 62.2 µM, the TGI (OVCAR-8 ovarian) was > 100 µM and the TGI (SK-MEL-5 melanoma) was > 100 µM. The TGI (SK-MEL-2 melanoma) was > 75.5 µM, the TGI (PC-3 prostate) was > 100 µM and the TGI (RPMI-8226 leukemia) was > 100 µM. For the same compound, the TGI (OVCAR-4 ovarian) was > 100 µM, the TGI (RXF 393 renal) was 63 µM and the TGI (MDA-MB-435) was > 100 µM. The TGI (BT-549 breast) was > 100 µM, the TGI (KM12 colon) was > 100 µM and the TGI (SF-268 CNS) was 29.3 µM. For the same compound, the TGI (OVCAR-3 ovarian) was > 100 µM, the TGI (SR leukemia) was > 100 µM and the TGI (IGROV1 ovarian) was > 100 µM. For the same compound, the TGI (786-0 renal) was > 100 µM and the TGI (HCC-2998 colon) was > 100 µM.
